Laboratory results published in ChEMBL document CHEMBL2046268 (Eur J Med Chem, 2012).
Active and inactive are the calls of the source. The rule behind the calls is not given here.

Experiments:
[1] = test system: HeLa; experiment: Cytotoxicity against human HeLa cells assessed as cell viability after 48 hrs by MTT assay; format: functional, cell-based
[2] = test system: A549; experiment: Cytotoxicity against human A549 cells assessed as cell viability after 48 hrs by MTT assay; format: functional, cell-based; conditions: A549, 48 h
[3] = test system: HeLa; experiment: Cytotoxicity against human HeLa cells assessed as cell viability after 72 hrs by MTT assay; format: functional, cell-based
[4] = test system: A549; experiment: Cytotoxicity against human A549 cells assessed as cell viability after 72 hrs by MTT assay; format: functional, cell-based; conditions: A549, 72 h
[5] = test system: MCF7; experiment: Cytotoxicity against human MCF7 cells assessed as cell viability after 48 hrs by MTT assay; format: functional, cell-based; conditions: MCF7, 48 h
[6] = test system: MCF7; experiment: Cytotoxicity against human MCF7 cells assessed as cell viability after 72 hrs by MTT assay; format: functional, cell-based; conditions: MCF7, 72 h
[7] = test system: Vero; experiment: Cytotoxicity against african green monkey Vero cells assessed as cell viability after 48 hrs by MTT assay; format: cell-based; conditions: Chlorocebus sabaeus
[8] = test system: Vero; experiment: Cytotoxicity against african green monkey Vero cells assessed as cell viability after 72 hrs by MTT assay; format: cell-based; conditions: Chlorocebus sabaeus
[9] = test system: Vero; experiment: Selectivity index, ratio of IC50 for african green monkey Vero cells to IC50 for human MCF7 cells after 48 hrs
[10] = test system: HeLa; experiment: Induction of apoptosis in human HeLa cells assessed as DNA fragmentation at 16 uM after 48 hrs by agarose gel electrophoresis; format: functional, cell-based
[11] = test system: HeLa; experiment: Induction of apoptosis in human HeLa cells assessed as DNA fragmentation at 16 to 32 uM after 24 hrs by agarose gel electrophoresis; format: functional, cell-based
[12] = test system: HeLa; experiment: Induction of apoptosis in human HeLa cells assessed as DNA fragmentation at 4 to 32 uM after 12 hrs by agarose gel electrophoresis; format: functional, cell-based
[13] = test system: HeLa; experiment: Induction of apoptosis in human HeLa cells assessed as chromatin condensation at 8 uM after 12 hrs using Hoechst 33342 staining by fluorescence microscopic analysis; format: functional, cell-based
[14] = test system: HeLa; experiment: Induction of apoptosis in human HeLa cells assessed as formation of apoptotic bodies at 8 uM after 12 hrs using Hoechst 33342 staining by fluorescence microscopic analysis; format: functional, cell-based
[15] = test system: HeLa; experiment: Induction of apoptosis in human HeLa cells assessed as increase in sub-G1 DNA content at 24 uM after 12 hrs using Propidium iodide staining by flow cytometry; format: functional, cell-based
[16] = biological target: T1, Caspase-3 (Homo sapiens) (UniProt P42574); experiment: Induction of caspase 3 activation in human HeLa cells using Ac-DEVD-pNA after 4 hrs by Bradford assay; format: cell-based
T1 sequence (whole entry): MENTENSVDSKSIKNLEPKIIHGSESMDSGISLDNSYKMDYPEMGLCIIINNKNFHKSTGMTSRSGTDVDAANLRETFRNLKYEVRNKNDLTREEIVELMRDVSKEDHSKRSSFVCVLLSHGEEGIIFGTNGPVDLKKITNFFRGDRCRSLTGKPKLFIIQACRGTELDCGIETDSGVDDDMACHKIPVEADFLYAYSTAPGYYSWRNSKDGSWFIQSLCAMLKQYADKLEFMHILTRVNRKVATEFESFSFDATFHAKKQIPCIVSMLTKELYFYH

[17] = biological target: T1, Caspase-3 (Homo sapiens); experiment: Induction of caspase 3 activation in human HeLa cells using Ac-DEVD-pNA at 4 uM after 4 hrs by Bradford assay; format: cell-based
[18] = biological target: T1, Caspase-3 (Homo sapiens); experiment: Induction of caspase 3 activation in human HeLa cells using Ac-DEVD-pNA at 8 uM after 4 hrs by Bradford assay; format: cell-based
[19] = biological target: T1, Caspase-3 (Homo sapiens); experiment: Increase in caspase 3 activation in human HeLa cells using Ac-DEVD-pNA at 32 uM after 4 hrs by Bradford assay relative to control; format: cell-based
[20] = test system: HeLa; experiment: Induction of apoptosis in human HeLa cells assessed as phosphatidylserine externalization at 2 to 16 uM using annexin/PI staining by fluorescence microscopy; format: functional, cell-based; conditions: TDE = time-dependent effect
[21] = test system: HeLa; experiment: Induction of apoptosis in human HeLa cells assessed as necrotic cells at 2 to 16 uM using annexin/PI staining by fluorescence microscopy; format: functional, cell-based; conditions: TDE = time-dependent effect
[22] = test system: HeLa; experiment: Induction of apoptosis in human HeLa cells assessed as necrotic cells at 8 uM after 1 to 2 hrs using annexin/PI staining by fluorescence microscopy; format: functional, cell-based
[23] = test system: HeLa; experiment: Induction of apoptosis in human HeLa cells assessed as phosphatidylserine externalization after 0.5 to 4 hrs using annexin/PI staining by fluorescence microscopy; format: functional, cell-based
[24] = test system: HeLa; experiment: Induction of apoptosis in human HeLa cells assessed as necrotic cells after 0.5 to 4 hrs using annexin/PI staining by fluorescence microscopy; format: functional, cell-based
[25] = biological target: T1, Caspase-3 (Homo sapiens); experiment: Increase in caspase 3 activation in human HeLa cells using Ac-DEVD-pNA at 12 uM after 4 hrs by Bradford assay relative to control; format: cell-based
[26] = test system: HeLa; experiment: Induction of apoptosis in human HeLa cells assessed as early apoptotic cells at 2 to 4 uM up to 4 hrs using annexin/PI staining by fluorescence microscopy; format: functional, cell-based
[27] = biological target: T1, Caspase-3 (Homo sapiens); experiment: Induction of caspase 3 activation in human HeLa cells using Ac-DEVD-pNA at 24 uM after 8 hrs by Bradford assay; format: cell-based
[28] = test system: HeLa; experiment: Induction of apoptosis in human HeLa cells at 12 uM after 2 to 4 hrs using annexin/PI staining by fluorescence microscopy; format: functional, cell-based
[29] = test system: HeLa; experiment: Induction of apoptosis in human HeLa cells at 8 uM after 2 to 4 hrs using annexin/PI staining by fluorescence microscopy; format: functional, cell-based
[30] = test system: HeLa; experiment: Induction of apoptosis in human HeLa cells at 16 uM after 2 to 4 hrs using annexin/PI staining by fluorescence microscopy; format: functional, cell-based
[31] = test system: HeLa; experiment: Induction of apoptosis in human HeLa cells assessed as DNA fragmentation at 2 uM after 48 hrs by agarose gel electrophoresis; format: functional, cell-based
[32] = biological target: T1, Caspase-3 (Homo sapiens); experiment: Induction of caspase 3 activation in human HeLa cells using Ac-DEVD-pNA at 2 uM after 4 hrs by Bradford assay; format: cell-based

| Compound | IC50 [1] [nM] | IC50 [2] [nM] | IC50 [3] [nM] | IC50 [4] [nM] | IC50 [5] [nM] | IC50 [6] [nM] | IC50 [7] [nM] | IC50 [8] [nM] | Ratio IC50 [9] | Activity [10] | Activity [11] | Activity [12] | Activity [13] | Activity [14] | Activity [15] | Activity [16] | Activity [17] | Activity [18] | Activity [20] | Activity [21] | further results |
| --- | --- | --- | --- | --- | --- | --- | --- | --- | --- | --- | --- | --- | --- | --- | --- | --- | --- | --- | --- | --- | --- |
| CC1=C(CO[Si](C)(C)C(C)(C)C)C(=O)O[C@@H]([C@@H](C)[C@H]2CC[C@H]3[C@@H]4C[C@H]5O[C@]56[C@@H](O)C=CC(=O)[C@]6(C)[C@H]4CC[C@]23C)C1 | 900 | 1500 | 1000 | 1500 | 700 | 700 | 700 | 900 | 1 | inactive | inactive | inactive | Active | Active | Active | Dose-dependent effect | inactive | inactive | tde | tde | Activity [19]: inactive; Activity [22]: inactive; Activity [23]: Dose-dependent effect; Activity [24]: Dose-dependent effect |
| CC1=C(CO)C(=O)O[C@@H]([C@@H](C)C2=CC[C@H]3[C@@H]4C[C@H]5O[C@]56[C@@H](O)C=CC(=O)[C@]6(C)[C@H]4CC[C@]23C)C1 [WITHARISTATIN] | 3500 | 4200 | 2700 | 2300 | 1200 | 300 | 3400 | 2600 | 2.8 | inactive | inactive | inactive | Active | Active | Active | Dose-dependent effect | inactive | inactive | tde | tde | fold change (FC) [25]: 1; Activity [26]: Active; Activity [23]: Dose-dependent effect; Activity [24]: Dose-dependent effect |
| CC1=C(C)C(=O)O[C@@H]([C@@H](C)[C@H]2CC[C@H]3[C@@H]4C[C@H]5O[C@]56[C@@H](O)C=CC(=O)[C@]6(C)[C@H]4CC[C@]23C)C1 | 4600 | 9000 | 3400 | 1500 | 6600 | 1100 | 1500 | 2200 | <1 | inactive | inactive | inactive | Active | Active | Active | Dose-dependent effect | inactive | inactive | tde | tde | Activity [26]: Active; Activity [23]: Dose-dependent effect; Activity [24]: Dose-dependent effect |
| CC1=C(CO)C(=O)O[C@@H]([C@@H](C)[C@H]2CC[C@H]3[C@@H]4C[C@H]5O[C@]56[C@@H](O)C=CC(=O)[C@]6(C)[C@H]4CC[C@]23C)C1 [WITHAFERIN A] | 3000 | 6600 | 2300 | 1500 | 3600 | 600 | 1300 | 1700 | <1 | inactive | inactive | inactive | Active | Active | Active | Dose-dependent effect | inactive | inactive | tde | tde | Activity [27]: Active; Activity [26]: Active; Activity [23]: Dose-dependent effect; Activity [24]: Dose-dependent effect |
| CC1=C(CO[Si](C)(C)C(C)(C)C)C(=O)O[C@@H]([C@@H](C)[C@H]2CC[C@H]3[C@@H]4C[C@H]5O[C@]56C(=O)C=CC(=O)[C@]6(C)[C@H]4CC[C@]23C)C1 | 1700 | 5300 | 2100 | 2900 | 500 | 200 | 3100 | 4000 | 6.2 | inactive | inactive | inactive | Active | Active | Active | Dose-dependent effect | inactive | inactive | tde | tde | Activity [28]: Active; Activity [27]: Active; Activity [29]: Active; Activity [30]: Active; Activity [23]: Dose-dependent effect; Activity [24]: Dose-dependent effect |
| CN[C@@H]1C[C@H]2O[C@@](C)([C@@H]1OC)n1c3ccccc3c3c4c(c5c6ccccc6n2c5c31)C(=O)NC4 |  |  |  |  |  |  |  |  |  |  |  |  |  |  |  |  |  |  |  |  | Activity [31]: Active; Activity [32]: Active |
| CC1=C(CO)C(=O)O[C@@H]([C@@H](C)[C@H]2CC[C@H]3[C@@H]4C[C@H]5O[C@]56[C@@H](O)CCC(=O)[C@]6(C)[C@H]4CC[C@]23C)C1 | 28900 | 33500 | 19300 | 17200 | 14400 | 5400 | 15500 | 9000 | 1.1 |  |  |  |  |  |  |  |  |  |  |  |  |
